Data on 4 compounds can be found in paper PMC11815855, “Exploring the Structure–Activity Relationships of Albumin-Targeted Picoplatin-Based Platinum(IV) Prodrugs” (Inorganic Chemistry, 2025).

Marks after values point to notes of the source that are not given here.

Series [1] has as its system CT26 colon cancer cells. In words: Colony formation (clonogenic) assay, CT26, 7 days. In kind it is cell-based, murine. The settings on record: 7 days drug exposure. An excerpt:
(§1) For the cell culture assays, the human ovarian model A2780/wt and its corresponding cisplatin-resistant subline A2780/cis (both purchased from Sigma and cultured in RPMI1640 medium), the human colorectal cancer model HCT116 (cultured in McCoy′s medium), and the murine (Balb/c) colorectal cancer model CT26 (cultured in DMEM/F-12 (1:1) medium) were used. The colon cancer models were purchased from the American Type Culture Collection (ATCC). The media were supplemented with 10% FCS (purchased from PAA Linz, Austria). To maintain drug resistance of A2780/cis, the subline was cultivated under continuous selection pressure (1 μM cisplatin). The selection drug was removed 1 week before the experiments were performed. Cell cultures were maintained at 37 °C in humidified atmosphere containing 5% CO2. All cultures were free of antibiotics and regularly checked for mycoplasma contamination. All cell culture media and reagents were purchased from Sigma-Aldrich Austria. All investigated drugs were dissolved in either water (oxaliplatin, carboplatin) or DMF before further dilution in cell culture medium. DMF concentrations were always below 0.5%.
(§2) Then, cells were exposed to the indicated drugs in rising concentrations. After 7 days, the cells were fixed with methanol for 20 min at 4 °C and stained with crystal violet 5 (0.01% in PBS). The fluorescence of the crystal violet was detected by the Typhoon scanner (Typhoon TRIO Variable Mode Imager, GE Healthcare Life Sciences) after excitation by the red laser (633 nm). Quantification was done with ImageJ software.

In series [2] the test system is CT26 colon cancer cells. Description: MTT-based cell viability assay, CT26, 72 h. More on the design: species or system murine. Conditions: 72 h drug exposure.
Source text: as §1
(§3) Subsequently, the cells were incubated with the tested compounds in rising concentrations. […] The received data were visualized as dose–response curves by Graph Pad Prism 5 software (Graph Pad software, USA).

For another series, the target named is T1, horse heart CytC (Equus caballus, UniProt P00004).
T1 construct: 0.1 equiv horse heart CytC; from tissue; host or cells: horse heart
Description: Reduction with cytochrome C and NADH, UHPLC. The format is biochemical. The settings on record: 700 μM, 0.1 equiv CytC and 10 equiv NADH, 50 mM PB pH 6.0, 37 °C. An excerpt: (§4) To explain the rather unusual in vivo findings, especially with respect to Pico-Mal, we hypothesized that inefficient reductive release of the platinum(II) core from albumin due to steric hindrance of the 2-picoline could provide a plausible explanation for the lack of antitumor activity despite a favorable pharmacokinetic profile. […] To gain insights into whether the molecular weight and thus steric demands of the reducing agent impact the reduction of picoplatin(IV) derivatives, Pico-Succ and the reference complex Cis-Succ were analyzed in the presence of cytochrome C (CytC; ∼12,000 g/mol) or AA (176 g/mol). Therefore, Pico-Succ and Cis-Succ (for synthesis and ^1H NMR characterization, see experimental part and Scheme S1) were coincubated at pH 6.0 with 0.1 equiv CytC[60] and 10 equiv reduced NADH or with 10 equiv AA at 37 °C over 4 h, and the reduction kinetics were compared relatively. The amount of remaining intact platinum(IV) complex at given time points was measured via UHPLC (Figure 6). […]
(§5) PB (50 mM, pH 6.0) containing 700 μM Pt compound was incubated at 37 °C with the addition of 0.1 equiv horse heart CytC and 10 equiv reduced NADH or with 10 equiv L-ascorbic acid. The reaction was monitored on a Thermo Scientific Dionex UltiMate 3000 UHPLC-system using a Waters Acquity UPLC BEH peptide C18 1.7 μm 2.1 × 100 mm column. […]

For series [3], the system named is A2780/wt ovarian cancer cells. Description: MTT-based cell viability assay, A2780/wt, 72 h. More on the design: species or system human. The settings on record: 72 h drug exposure, means of independent experiments.
Source text: as §1, §3

Series [4] is described as follows: Reduction of platinum(IV)-succinimide complexes with 10 equiv GSH, UHPLC. The format is physicochemical. The settings on record: 1 mM, 150 mM PB pH 7.4, 20 °C, 5 min. An excerpt: It is well-known that platinum(IV) complexes derived from, e.g., oxaliplatin or carboplatin, bearing leaving groups other than chlorido ligands, have distinctly slower reduction rates compared to cisplatin(IV) analogs.[54] This can be explained by a bridging interaction between the chlorido ligands and the reducing agent, which facilitates electron transfer to the platinum center.[55] […] The reductive behavior was also investigated in the presence of 10 equiv GSH in coherence with the above investigated interactions of platinum(II) with GSH (Figure S8).
(§6) PB (150 mM, pH 7.4) containing 1 mM Pt compound was incubated at 20 °C with and without the addition of 10 equiv L-ascorbic acid or reduced GSH. The reaction was monitored on a Thermo Scientific Dionex UltiMate 3000 UHPLC-system using a Waters Acquity UPLC BEH C18 1.7 μm, 3.0 × 50 mm column. Milli-Q water containing 0.1% formic acid and acetonitrile containing 0.1% formic acid were used as eluents. A gradient of 5–95% over 5 min was used with a flow of 0.6 mL/min. To evaluate the reaction process, we used the peak area of the parental complex.

For another series, the target named is albumin (Bos taurus, UniProt P02769). In words: Albumin binding and stability in phosphate-buffered FCS, SEC-ICP-MS. The settings on record: 50 μM in FCS (150 mM PB, pH 7.4), 37 °C, 1 h. On the procedure: FCS was purchased from Sigma-Aldrich and buffered with 150 mM phosphate pH 7.4 in order to guarantee a stable pH. The platinum(IV) complexes were dissolved in 150 mM PB (pH 7.4) at a concentration of 5 mM and diluted 1:100 in buffered serum to obtain a final concentration of 50 μM. […] Between each sample, a pure water blank was measured. […] Oxygen (purity 5.5, Messer Austria GmbH, Gumpoldskirchen, Austria) was used as the reaction gas.

The nature of series [5]: Reduction kinetics of platinum(IV)-succinimide complexes with AA, UHPLC. The settings on record: 1 mM, 150 mM PB pH 7.4, 20 °C. The format is physicochemical. On the procedure: (§7) Platinum(IV) prodrugs need to be reduced in the tumor environment to release the cytotoxic platinum(II) complexes. Thus, the reduction properties of Pico-Succ, PicoCarbo-Succ, and PicoOxali-Succ were investigated. As mentioned above, succinimide complexes were used for these studies to avoid competitive hydrolysis of the maleimide moiety. All platinum(IV)-succinimide complexes were incubated in both the absence and presence of a 10-fold excess L-ascorbic acid (AA) in PB at pH 7.4 and 20 °C over 6 h. The amount of remaining intact platinum(IV) complex at given time points was measured via ultrahigh performance liquid chromatography (UHPLC), as shown in Figure 2. Pico-Succ was reduced extremely fast, with only traces of the original complex left in the first measurement after ∼5 min of incubation. Even with equimolar amounts of AA, 90% of Pico-Succ was already reduced after ∼5 min (Figure S6). This level of reductive instability is exceptionally high, even when compared to the “fast” reducing cisplatin(IV) prodrugs, which show a complete conversion after ∼10 h in the presence of 10 equiv AA.[41],[53]
as §6

Series [6] is described as follows: Reduction with 10 equiv AA at pH 6.0 and 37 °C, UHPLC. The format is physicochemical. Conditions: 700 μM, 50 mM PB pH 6.0, 37 °C.
Source text: as §4, §5

Series [7] deals with HCT116 colon cancer cells. Description: MTT-based cell viability assay, HCT116, 72 h. More on the design: species or system human. Conditions: 72 h drug exposure.
Source text: as §1, §3

The test system of series [8] is A2780/cis ovarian cancer cells. Description: MTT-based cell viability assay, A2780/cis (cisplatin-resistant), 72 h. More on the design: species or system human. The settings on record: for IC50: 72 h drug exposure, cisplatin-resistant subline, means of independent experiments; for IC50 / IC50 in A2780/cis compared to A2780/wt: MTT-based assay; for RF (resistance factor): fold-change between IC50 values of A2780/cis:A2780/wt; for RF (resistance factor) / IC50 in A2780/cis compared to A2780/wt: 72 h.
Source text: as §1, §3
For orientation: Tetrazolium assays rely on reduction of a dye to a coloured formazan, in cell work by metabolically active cells.

Series [9] is described as follows: Hydrolytic stability of platinum(IV)-succinimide complexes in PB without AA, UHPLC. In kind it is physicochemical. The settings on record: 1 mM, 150 mM PB pH 7.4, 20 °C. On the procedure:
as §7
PB (150 mM, pH 7.4) containing 1 mM Pt compound was incubated at 20 °C with and without the addition of 10 equiv L-ascorbic acid or reduced GSH. The reaction was monitored on a Thermo Scientific Dionex UltiMate 3000 UHPLC-system using a Waters Acquity UPLC BEH C18 1.7 μm, 3.0 × 50 mm column. […]

Series [10] relates to HCT116 colon cancer cells. In words: Colony formation (clonogenic) assay, HCT116, 7 days. In kind it is cell-based, human. Conditions: for IC50: 7 days drug exposure, clonogenic assay.
Source text: as §1, §2

Series [11] has as its system CT26 allografts. The settings on record: carboplatin 60 mg/kg i.v. once a week for two weeks, Figure S11.
Description: days after first treatment
Balb/c mice. Mice were treated i.v. with the maximal tolerated dose of the respective drug and compared
to the solvent control. […] Oxaliplatin (9
mg/kg) was applied twice a week for two weeks. Tumor volume data are presented as means ± SEM. The
overall survival is depicted via a Kaplan –Meier curve.
Series [12] is described as follows: Stability of platinum(II) complexes in PBS or PB, NMR. The format is physicochemical. The settings on record: 1 mM, pH 7.4, 37 °C, 8 h incubation, no GSH. On the procedure:
(§8) An 1 mM solution of Pt compound was incubated in a mixture of 90% PB or PBS (150 mM, pH 7.4) and 10% D2O at 37 °C with and without the addition of 10 equiv GSH. The reaction was monitored with ^1H or [^1H, ^15N] […] The reference spectrum was shifted with a value of −0.5 ppm compared to the original ppm value calibrated to D2O before overlay with a spectrum at a single time point. In case of ^15N-cisplatin, the cross-peak of the parental complex in [^1H, ^15N] HSQC at time point 0 h was used as reference, and spectral overlay was achieved by shifting the 2D spectra at all given time points (2, 4, 6, and 8 h) with vertical steps of +14 ppm compared to the original ^15N NMR ppm value of the parental complex.

The nature of series [13]: Interaction of platinum(II) complexes with 10 equiv GSH, NMR. In kind it is physicochemical. Conditions: 1 mM complex, 10% D2O/90% PBS pH 7.4, 37 °C, 8 h, 1H NMR. On the procedure: The amount of remaining platinum(II) complex was monitored via ^1H NMR spectroscopy and, particularly for ^15N-cisplatin, via [^1H, ^15N] heteronuclear single quantum coherence (HSQC) NMR spectroscopy (Figure 1).[47]
as §8

Series [14] concerns CT26 allografts. The settings on record: oxaliplatin 9 mg/kg i.v. twice a week for two weeks, Figure S11 ref Schueffl et al, Chem. Sci. 2021, 12, 12587-12599; cited from earlier work.

T1 sequence (P00004 whole entry): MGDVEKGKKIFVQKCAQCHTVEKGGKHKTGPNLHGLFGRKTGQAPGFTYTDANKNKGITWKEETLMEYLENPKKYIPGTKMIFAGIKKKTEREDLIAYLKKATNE
albumin, sequence (P02769 25-607): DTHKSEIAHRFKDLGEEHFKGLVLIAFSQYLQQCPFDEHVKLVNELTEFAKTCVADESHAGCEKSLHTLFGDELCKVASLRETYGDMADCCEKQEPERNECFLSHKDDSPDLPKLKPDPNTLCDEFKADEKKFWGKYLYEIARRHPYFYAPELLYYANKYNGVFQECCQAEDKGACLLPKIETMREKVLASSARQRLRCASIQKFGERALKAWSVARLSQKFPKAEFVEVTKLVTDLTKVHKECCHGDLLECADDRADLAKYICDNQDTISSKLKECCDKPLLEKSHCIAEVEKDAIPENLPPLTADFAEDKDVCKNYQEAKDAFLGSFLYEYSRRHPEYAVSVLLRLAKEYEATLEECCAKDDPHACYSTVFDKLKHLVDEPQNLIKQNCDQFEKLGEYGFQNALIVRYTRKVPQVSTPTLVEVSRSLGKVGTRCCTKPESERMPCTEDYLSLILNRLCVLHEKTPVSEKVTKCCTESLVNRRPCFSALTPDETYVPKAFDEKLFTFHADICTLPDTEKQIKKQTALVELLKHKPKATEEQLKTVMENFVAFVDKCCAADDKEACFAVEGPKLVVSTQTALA

As a reminder, the IC50 is the concentration needed to halve the response being measured. Low values mean higher potency, high ones lower potency. Regarding `CC(=O)[O][Pt]([Cl])([Cl])[O]C(=O)NCCN1C(=O)CCC1=O.Cc1ccccn1.N` [Pico-Succ, (OC-6-21)[Acetato(ammine)(dichlorido)(1-(2-isocyanatoethyl)pyrrolidine-2,5-dione)(2-methylpyridine)platinum(IV)]], the IC50 with CT26 colon cancer cells [1] was 30.9 µM; in the series with CT26 colon cancer cells [2] it was 77.8 µM; in series [3] it was 63.2 µM; in [7] it was over 100 µM; in series [8], over 100 µM; in series [10], 32.1 µM. The “time to complete reduction with CytC” value on horse heart CytC is 1 h. Besides, the “original compound remaining after 5 min with 10 equiv GSH” value in series [4] was “only traces”. For the same compound, at albumin, the “intact platinum(IV) complex left after 1 h in FCS” value is reported as “only traces”. Moreover, the “original complex left after ∼5 min with 10 equiv AA” value in series [5] (10 equiv AA, first measurement ∼5 min) is reported as “only traces”. In series [5] (equimolar AA, ∼5 min), the “complex reduced after ∼5 min with equimolar AA” value was found to be 90%. Besides, the “reduction with AA” value in series [6] is “immediate reduction”. In addition, in [8], the “RF (resistance factor)” value is recorded as over 1.6. Besides, in series [9], the “time stable in absence of AA” value is recorded as “over 6 h”. Further, the “reduction of IC50 values, 7 days vs 72 h” value in series [10] (HCT116 and CT26, colony formation 7 days compared to MTT 72 h) was 2–3 fold.

As for “(OC-6-44)[Acetatodiamminedichlorido[2-(2,5-dioxopyrrolidin-1-yl)butyl)carbamato]platinum(IV)] [Cis-Succ, reference compound]”, at horse heart CytC, the “time to complete reduction with CytC” value was 4 h. For the same compound, the “reduction with AA after 4 h” value in series [6] (4 h) is given as about 40%.

As to `N.N.O=C([O-])C1(C(=O)[O-])CCC1.[Pt+2]` [carboplatin], the IC50 turned out to be 4.37 µM in the series with CT26 colon cancer cells [1]; 22.1 µM with CT26 colon cancer cells [2]; 32 µM in series [3]; 63.2 µM in series [7]; 74.9 µM in [8]; 7.41 µM in series [10]. In addition, the “response of CT26 allografts to carboplatin” value in the series on CT26 allografts [11] was “highly carboplatin-resistant”. Moreover, the “complex left in 10% D2O/90% PBS” value in series [12] was over 95%. Moreover, the “intact platinum(II) complex left after 8 h with GSH” value in [13] is about 60%. Besides, the “IC50 in A2780/cis compared to A2780/wt” value in [8] is given as 2.3 fold. Moreover, the “RF (resistance factor)” value in [8] was 2.3****.

`O=C1[O][Pt]2([NH][C@@H]3CCCC[C@H]3[NH]2)[O]C1=O` [oxaliplatin]: the IC50 in the series with CT26 colon cancer cells [1] is 1.81 µM; in the series with CT26 colon cancer cells [2], 1.97 µM; in series [3] it was 0.63 µM; in [7], 2.19 µM; in series [8] it was 0.68 µM; in series [10], 1.46 µM. Besides, the “response of CT26 allografts to oxaliplatin” value in the series with CT26 allografts [14] was “only moderately responsive”. In addition, the “complex left in 10% D2O/90% PB” value in [12] is on record as over 90%. Besides, the “complex left in 10% D2O/90% PBS” value in series [12] was “readily degraded”. Besides, in series [8], the “IC50 in A2780/cis compared to A2780/wt” value is reported as 1.1 fold. Moreover, in series [8], the “RF (resistance factor)” value is 1.1^ns.
